In ChEMBL document CHEMBL1201862, “PubChem BioAssay data set” (2004):
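Grown in 96-well plates, cells were treated for 48 hours with each compound at five concentrations. Insufficient inhibition: endpoint recorded as highest concentration tested. GI50 is the concentration that inhibits growth by half.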 The source made the active and inactive calls. Rule as the data show it: active = GI50 up to about 1.1 µM and inactive = higher. Positions of bridges follow the written chain, without caps; N, C: chain ends. Residues, ends and D or L forms follow the SMILES beside them. Peptide text beside a SMILES is read from it.

What was measured:
Experiment in all cases: NCI tumour cell line growth inhibition, 48 h
[1] = system: SK-MEL-2
[2] = system: A498
[3] = system: CCRF-CEM
[4] = system: UACC-62
[5] = system: MOLT-4
[6] = system: HCT-15
[7] = system: UO-31
[8] = system: COLO 205
[9] = system: SK-OV-3
[10] = system: MDA-N
[11] = system: ACHN
[12] = system: HCC 2998
[13] = system: SF-539
[14] = system: CAKI-1
[15] = system: HT-29
[16] = system: NCI-H226
[17] = system: Malme-3M
[18] = system: TK-10
[19] = system: Hs-578T

Row | Structure (SMILES) | GI50 [1] | GI50 [2] | GI50 [3] | GI50 [4] | GI50 [5] | GI50 [6] | GI50 [7] | GI50 [8] | GI50 [9] | GI50 [10] | GI50 [11] | GI50 [12] | GI50 [13] | GI50 [14] | GI50 [15] | GI50 [16] | GI50 [17] | GI50 [18] | GI50 [19]
1 | Nc1cc(N2CCOCC2)nc(=O)n1-c1ccccc1 | > 100 µM (inactive) | > 100 µM (inactive) | > 100 µM (inactive) | > 100 µM (inactive) | > 100 µM (inactive) | > 100 µM | > 100 µM (inactive) | > 100 µM (inactive) | > 100 µM (inactive) | > 100 µM (inactive) | > 100 µM (inactive) | > 100 µM (inactive) | > 100 µM (inactive) | > 100 µM (inactive) | > 100 µM (inactive) | > 100 µM (inactive) | – | – | –
2 | COC(=O)C1CCC(=O)NCCCCC(NC(=O)C(N)CC(=O)O)C(=O)N1 (stereo not drawn) (H-Asp-Lys-Glu-OMe; lactam 2-3; configuration not given here) | > 100 µM (inactive) | – | 32.4 µM (inactive) | 28.2 µM (inactive) | > 100 µM (inactive) | > 100 µM | > 100 µM (inactive) | > 100 µM (inactive) | > 100 µM (inactive) | > 100 µM (inactive) | 41.2 µM (inactive) | > 100 µM (inactive) | > 100 µM (inactive) | 82 µM (inactive) | > 100 µM (inactive) | > 100 µM (inactive) | > 100 µM (inactive) | > 100 µM (inactive) | > 100 µM (inactive)
3 | NC(=O)CCC(NC(=O)c1cccc2c(=O)c3ccccc3[nH]c12)C(=O)O (stereo not given) | > 100 µM (inactive) | > 100 µM (inactive) | – | > 100 µM (inactive) | > 100 µM (inactive) | > 100 µM | > 100 µM (inactive) | > 100 µM (inactive) | > 100 µM (inactive) | > 100 µM (inactive) | > 100 µM (inactive) | – | – | – | > 100 µM (inactive) | > 100 µM (inactive) | > 100 µM (inactive) | > 100 µM (inactive) | > 100 µM (inactive)
4 | Cc1nn(C(=O)Cc2ccccc2)c2c1C(c1ccc(Cl)cc1)SC(=N)N2 (stereo not given) | – | > 100 µM (inactive) | > 100 µM (inactive) | > 100 µM (inactive) | > 100 µM (inactive) | > 100 µM | – | > 100 µM (inactive) | > 100 µM (inactive) | – | > 100 µM (inactive) | > 100 µM (inactive) | > 100 µM (inactive) | > 100 µM (inactive) | > 100 µM (inactive) | – | > 100 µM (inactive) | > 100 µM (inactive) | > 100 µM (inactive)
5 | Cc1ccc(/N=N/c2c(O)c(C(=O)O)cc3ccccc23)cc1C | > 100 µM (inactive) | – | > 100 µM (inactive) | > 100 µM (inactive) | > 100 µM (inactive) | > 100 µM | > 100 µM (inactive) | > 100 µM (inactive) | > 100 µM (inactive) | – | > 100 µM (inactive) | > 100 µM (inactive) | > 100 µM (inactive) | > 100 µM (inactive) | > 100 µM (inactive) | > 100 µM (inactive) | > 100 µM (inactive) | > 100 µM (inactive) | 42.3 µM (inactive)
6 | O=C1Sc2sc(=S)sc2SC1c1ccccc1 (stereo not given) | > 65 µM (inactive) | > 100 µM (inactive) | 33 µM (inactive) | 26.8 µM (inactive) | 31.6 µM (inactive) | 19.4 µM | 39 µM (inactive) | 37.2 µM (inactive) | > 100 µM (inactive) | – | – | > 89.7 µM (inactive) | 74 µM (inactive) | 1 µM (active) | 40.8 µM (inactive) | > 81.8 µM (inactive) | > 49.3 µM (inactive) | – | –
7 | COc1cccc(/C=C2\S/C(=N/Nc3nc(C)c(C)s3)NC2=O)c1O | > 100 µM (inactive) | > 100 µM (inactive) | – | 69.5 µM (inactive) | 49.3 µM (inactive) | > 100 µM | 74.1 µM (inactive) | > 100 µM (inactive) | > 100 µM (inactive) | > 100 µM (inactive) | > 100 µM (inactive) | 61.5 µM (inactive) | > 100 µM (inactive) | > 100 µM (inactive) | > 100 µM (inactive) | > 100 µM (inactive) | – | > 100 µM (inactive) | –
8 | C[C@H]1C(=O)O[C@@H]1[C@H]1COC(C)(C)O1 | > 100 µM (inactive) | > 100 µM (inactive) | 32.5 µM (inactive) | > 100 µM (inactive) | > 100 µM (inactive) | > 100 µM | > 100 µM (inactive) | – | > 100 µM (inactive) | > 100 µM (inactive) | > 100 µM (inactive) | > 100 µM (inactive) | > 100 µM (inactive) | > 100 µM (inactive) | – | > 100 µM (inactive) | – | > 100 µM (inactive) | –
9 | CCC(C)C(NC(=O)C(NC(=O)C(CC(N)=O)NC(=O)CN)C(C)O)C(=O)NC(C(=O)NC(C)C(=O)NC(C(=O)NC(CCC(=O)O)C(=O)NC(CC(C)C)C(=O)NC(CC(=O)O)C(=O)NC(C(=O)NC(Cc1ccc(O)cc1)C(=O)N1CCCC1C(=O)O)C(C)O)C(C)C)C(C)C (stereo not given) (H-GNTIVAVELDTYP-OH; configuration not given here) | > 50 µM (inactive) | – | > 50 µM (inactive) | > 50 µM (inactive) | > 50 µM (inactive) | > 50 µM | > 50 µM (inactive) | > 50 µM (inactive) | > 50 µM (inactive) | > 50 µM (inactive) | > 50 µM (inactive) | > 50 µM (inactive) | > 50 µM (inactive) | > 50 µM (inactive) | > 50 µM (inactive) | > 50 µM (inactive) | > 50 µM (inactive) | > 50 µM (inactive) | > 50 µM (inactive)
10 | O=C1c2ccccc2C(=O)N1CC(O)COc1cccc2ccccc12 (stereo not given) | – | 73.5 µM (inactive) | > 100 µM (inactive) | > 100 µM (inactive) | > 100 µM (inactive) | > 100 µM | > 100 µM (inactive) | > 100 µM (inactive) | > 100 µM (inactive) | > 100 µM (inactive) | 76.4 µM (inactive) | > 100 µM (inactive) | – | 16.2 µM (inactive) | > 100 µM (inactive) | – | 61.8 µM (inactive) | > 100 µM (inactive) | –
11 | O=C(CNc1ccccc1C(=O)O)Nn1cnc2ccc(S(=O)(=O)Nc3ccccc3C(=O)O)cc2c1=O | > 100 µM (inactive) | – | > 100 µM (inactive) | > 100 µM (inactive) | > 100 µM (inactive) | > 100 µM | > 100 µM (inactive) | > 100 µM (inactive) | > 100 µM (inactive) | > 100 µM (inactive) | > 100 µM (inactive) | > 100 µM (inactive) | > 100 µM (inactive) | > 100 µM (inactive) | > 100 µM (inactive) | > 100 µM (inactive) | > 100 µM (inactive) | > 100 µM (inactive) | > 100 µM (inactive)
12 | O=C(Nc1cc([N+](=O)[O-])cc([N+](=O)[O-])c1)OC1C2CCC1C1OC1C2 (stereo not given) | > 50 µM (inactive) | > 50 µM (inactive) | > 50 µM (inactive) | > 50 µM (inactive) | 34.5 µM (inactive) | > 50 µM | 19.9 µM (inactive) | > 50 µM (inactive) | > 50 µM (inactive) | – | > 50 µM (inactive) | > 50 µM (inactive) | > 50 µM (inactive) | – | – | – | 22.9 µM (inactive) | > 50 µM (inactive) | –
13 | SC1=NC2=C(CSC/C2=C\c2ccccc2)C(c2ccccc2)N1 (stereo not given) | 49.3 µM (inactive) | – | 36.6 µM (inactive) | 27.9 µM (inactive) | 27.7 µM (inactive) | 41.7 µM | 33.8 µM (inactive) | 37.5 µM (inactive) | 92.7 µM (inactive) | 31.3 µM (inactive) | 49.7 µM (inactive) | 42.5 µM (inactive) | 76.6 µM (inactive) | > 100 µM (inactive) | 32.6 µM (inactive) | 56.4 µM (inactive) | 28.6 µM (inactive) | 61.8 µM (inactive) | –
14 | CN1C(=O)N(C)C2(CCN(CCCCCCF)CC2)C1=O | – | – | > 100 µM (inactive) | > 100 µM (inactive) | > 10 µM (inactive) | > 100 µM | > 100 µM (inactive) | > 100 µM (inactive) | > 100 µM (inactive) | > 100 µM (inactive) | > 100 µM (inactive) | > 100 µM (inactive) | > 100 µM (inactive) | > 100 µM (inactive) | > 100 µM (inactive) | > 100 µM (inactive) | > 100 µM (inactive) | > 100 µM (inactive) | –
15 | CC(=O)OC1CCC2(C)C(CCC3C2CCC2(C)C(c4ccc(=O)oc4)C(OC(C)=O)CC32O)C1 (stereo not given) | 0.0258 µM (active) | 0.0156 µM (active) | 0.0151 µM (active) | 0.0169 µM (active) | 0.0163 µM (active) | 0.0136 µM | 0.0156 µM (active) | 0.0288 µM (active) | 0.0292 µM (active) | – | – | 0.0269 µM (active) | 0.0125 µM (active) | 0.0151 µM (active) | 0.0263 µM (active) | 0.0356 µM (active) | 0.0125 µM (active) | – | –
16 | CCCOc1ccc2sc(NC(=O)c3cc([N+](=O)[O-])cc([N+](=O)[O-])c3)nc2c1 | 50.2 µM (inactive) | 23.7 µM (inactive) | 30.3 µM (inactive) | 25.5 µM (inactive) | 36.3 µM (inactive) | 53.7 µM | 18.5 µM (inactive) | 54.1 µM (inactive) | 36.5 µM (inactive) | – | 48.4 µM (inactive) | – | 29.2 µM (inactive) | 28.6 µM (inactive) | 69.8 µM (inactive) | 27.9 µM (inactive) | 25.4 µM (inactive) | 28.1 µM (inactive) | 13.7 µM (inactive)
17 | C=C1C(=O)OC2CC(C)C(C(CC(C)=O)OC(C)=O)=CCC12 (stereo not given) | 18 µM (inactive) | 18.7 µM (inactive) | 2.61 µM (inactive) | 11.7 µM (inactive) | 4.07 µM (inactive) | 2.75 µM | 16.2 µM (inactive) | 6.82 µM (inactive) | 37.9 µM (inactive) | – | 9.27 µM (inactive) | 10.5 µM (inactive) | 15.3 µM (inactive) | 3.16 µM (inactive) | 8.41 µM (inactive) | 34.1 µM (inactive) | 2.02 µM (inactive) | 17.3 µM (inactive) | > 100 µM (inactive)
